Test results from US20110275638A1, “PIPERAZINE DERIVATIVES AND THEIR USE AS LEPTIN RECEPTOR MODULATORS” (priority 2008, published 2011).
pEC50: −log10 of the molar value.

Columns and labels:
[1] = test system: JEG-3 cells; assay: [3H]-thymidine incorporation in JEG-3 cells (JEG-3 protocol); assay type: cell-based; details: FIG. 4
Method: In JEG-3 cells (choriocarcinoma cell line) leptin is able to stimulate proliferation up to 3 fold (Biol. Reprod. (2007) 76: 203-10). […] The radioactivity incorporated by the cells is an index of their proliferative activity and is measured in counts per minute (CPM) with a liquid scintillation beta counter.
This finding can be applied to test whether a compound is able to either reproduce the effect of leptin on cell proliferation (leptin receptor agonist mimetic) (i.e., a given compound will cause an increase in incorporated [^3H]-Thymidine by the cells) or to inhibit the effect of leptin (antagonistic effect) by preventing the leptin-mediated increase in [^3H]-thymidine incorporation.

[2] = test system: JEG-3 cells; details: Biol. Reprod. (2007) 76: 203-10; cited from earlier work

For “leptin: hormone synthesized in fat cells that is believed to act in the hypothalamus to reduce food intake and body weight”, the pEC50 ([1]; JEG-3 cells (choriocarcinoma cell line), read-out: EC50, increase in [3H]-thymidine incorporation) is given as 8.68, the “concentration of maximal effect on [3H]-thymidine incorporation” value ([1]; JEG-3 cells) is given as 100 nM and the stimulation of proliferation [2] is given as “up to 3 fold”.
